According to US20260209193A1, “NOVEL INHIBITORS OF DNA DAMAGE RESPONSES FOR CANCER THERAPY” (The Regents of the University of California, priority 2022, published 2026):

Legend:
PARP1 = target: T1, PARP1 (Homo sapiens, UniProt P09874); experiment: PARP1 trapping, chromatin fractionation (chromatin-bound fraction); assay type: cell-based; settings: PC3 cells
T1 construct: endogenous in cells; host or cells: PC3
Description: The trapped PARP1 forms a toxic lesion and stalls the progress of replication forks. The replication fork collapses in BRCA1/2-deficient cancer cells, and then results in cell death. […] Six cancer cell lines were used in this assay, including two breast cancer cell lines, BRCA1-mutunt SUM149PT-BRCA1mut and SUM149PT-BRCA1rev where deleterious BRCA1 mutation is reverted to form a functional BRCA1, two ovarian cancer cell lines, BRCA1-null UWB1.289 and UWB1.289+BRCA1, a stable cell line in which wild-type BRCA1 function has been restored, and two prostate cancer cell lines, enzalutamide resistant C4-2B/MR which is homologous recombination (HR)-deficient due to Rad51 mutation, and enzalutamide insensitive PC3 which is HR-proficient.

ATR = target: T2, ATR (Homo sapiens, UniProt Q13535); experiment: ATR-mediated signaling: phosphorylation of Rad17 Ser 645 and CHK1 Ser 345 in cells; assay type: cell-based; settings: for ATR inhibition potency relative to JC099 (OLA- or UV-induced phosphorylation of Rad17 and CHK1): compared to JC099; for Olaparib induced phosphorylation of Rad17 at Ser 645 and CHK1 at Ser 345: 1 μM and 2 μM
T2 construct: endogenous in cells; host or cells: PC3, C4-2B/MR, SUM149PT-BRCA1rev, UWB1.289+BRCA1, MDA-MB-231
Protocol: PARP inhibitor-resistant cells are increasingly dependent on ATR for survival, and ATR inhibition disrupts restored HR and fork protection pathways in PARP inhibitor resistant BRCA-deficient cancer cells. For ATR kinase in vitro assays, ATR was immunoprecipitated with 3 μg of anti-ATR antibody (Bethyl Laboratories, A300-137A) from 1 mg of cell lysate. […] The IC50 was determined by the enzyme profiling service of Eurofins Cerep (France). […] The phosphorylation of CHK1 at Ser 345 sites was used as a bio-marker of ATR-mediated signaling pathway. The phosphorylation of Rad17 at Ser 645, which is a substrate of ATR, was also examined.
ATR inhibition was assessed in C4-2B/MR cells. Considering ATM is a homologous protein of ATR, we also detected the effect of JC046 analogs on the phosphorylation of KAP1 at Ser 824 and CHK2 at Thr 68 sites, which were used as markers of ATM signaling pathway.

T2 sequence (Q13535 whole entry): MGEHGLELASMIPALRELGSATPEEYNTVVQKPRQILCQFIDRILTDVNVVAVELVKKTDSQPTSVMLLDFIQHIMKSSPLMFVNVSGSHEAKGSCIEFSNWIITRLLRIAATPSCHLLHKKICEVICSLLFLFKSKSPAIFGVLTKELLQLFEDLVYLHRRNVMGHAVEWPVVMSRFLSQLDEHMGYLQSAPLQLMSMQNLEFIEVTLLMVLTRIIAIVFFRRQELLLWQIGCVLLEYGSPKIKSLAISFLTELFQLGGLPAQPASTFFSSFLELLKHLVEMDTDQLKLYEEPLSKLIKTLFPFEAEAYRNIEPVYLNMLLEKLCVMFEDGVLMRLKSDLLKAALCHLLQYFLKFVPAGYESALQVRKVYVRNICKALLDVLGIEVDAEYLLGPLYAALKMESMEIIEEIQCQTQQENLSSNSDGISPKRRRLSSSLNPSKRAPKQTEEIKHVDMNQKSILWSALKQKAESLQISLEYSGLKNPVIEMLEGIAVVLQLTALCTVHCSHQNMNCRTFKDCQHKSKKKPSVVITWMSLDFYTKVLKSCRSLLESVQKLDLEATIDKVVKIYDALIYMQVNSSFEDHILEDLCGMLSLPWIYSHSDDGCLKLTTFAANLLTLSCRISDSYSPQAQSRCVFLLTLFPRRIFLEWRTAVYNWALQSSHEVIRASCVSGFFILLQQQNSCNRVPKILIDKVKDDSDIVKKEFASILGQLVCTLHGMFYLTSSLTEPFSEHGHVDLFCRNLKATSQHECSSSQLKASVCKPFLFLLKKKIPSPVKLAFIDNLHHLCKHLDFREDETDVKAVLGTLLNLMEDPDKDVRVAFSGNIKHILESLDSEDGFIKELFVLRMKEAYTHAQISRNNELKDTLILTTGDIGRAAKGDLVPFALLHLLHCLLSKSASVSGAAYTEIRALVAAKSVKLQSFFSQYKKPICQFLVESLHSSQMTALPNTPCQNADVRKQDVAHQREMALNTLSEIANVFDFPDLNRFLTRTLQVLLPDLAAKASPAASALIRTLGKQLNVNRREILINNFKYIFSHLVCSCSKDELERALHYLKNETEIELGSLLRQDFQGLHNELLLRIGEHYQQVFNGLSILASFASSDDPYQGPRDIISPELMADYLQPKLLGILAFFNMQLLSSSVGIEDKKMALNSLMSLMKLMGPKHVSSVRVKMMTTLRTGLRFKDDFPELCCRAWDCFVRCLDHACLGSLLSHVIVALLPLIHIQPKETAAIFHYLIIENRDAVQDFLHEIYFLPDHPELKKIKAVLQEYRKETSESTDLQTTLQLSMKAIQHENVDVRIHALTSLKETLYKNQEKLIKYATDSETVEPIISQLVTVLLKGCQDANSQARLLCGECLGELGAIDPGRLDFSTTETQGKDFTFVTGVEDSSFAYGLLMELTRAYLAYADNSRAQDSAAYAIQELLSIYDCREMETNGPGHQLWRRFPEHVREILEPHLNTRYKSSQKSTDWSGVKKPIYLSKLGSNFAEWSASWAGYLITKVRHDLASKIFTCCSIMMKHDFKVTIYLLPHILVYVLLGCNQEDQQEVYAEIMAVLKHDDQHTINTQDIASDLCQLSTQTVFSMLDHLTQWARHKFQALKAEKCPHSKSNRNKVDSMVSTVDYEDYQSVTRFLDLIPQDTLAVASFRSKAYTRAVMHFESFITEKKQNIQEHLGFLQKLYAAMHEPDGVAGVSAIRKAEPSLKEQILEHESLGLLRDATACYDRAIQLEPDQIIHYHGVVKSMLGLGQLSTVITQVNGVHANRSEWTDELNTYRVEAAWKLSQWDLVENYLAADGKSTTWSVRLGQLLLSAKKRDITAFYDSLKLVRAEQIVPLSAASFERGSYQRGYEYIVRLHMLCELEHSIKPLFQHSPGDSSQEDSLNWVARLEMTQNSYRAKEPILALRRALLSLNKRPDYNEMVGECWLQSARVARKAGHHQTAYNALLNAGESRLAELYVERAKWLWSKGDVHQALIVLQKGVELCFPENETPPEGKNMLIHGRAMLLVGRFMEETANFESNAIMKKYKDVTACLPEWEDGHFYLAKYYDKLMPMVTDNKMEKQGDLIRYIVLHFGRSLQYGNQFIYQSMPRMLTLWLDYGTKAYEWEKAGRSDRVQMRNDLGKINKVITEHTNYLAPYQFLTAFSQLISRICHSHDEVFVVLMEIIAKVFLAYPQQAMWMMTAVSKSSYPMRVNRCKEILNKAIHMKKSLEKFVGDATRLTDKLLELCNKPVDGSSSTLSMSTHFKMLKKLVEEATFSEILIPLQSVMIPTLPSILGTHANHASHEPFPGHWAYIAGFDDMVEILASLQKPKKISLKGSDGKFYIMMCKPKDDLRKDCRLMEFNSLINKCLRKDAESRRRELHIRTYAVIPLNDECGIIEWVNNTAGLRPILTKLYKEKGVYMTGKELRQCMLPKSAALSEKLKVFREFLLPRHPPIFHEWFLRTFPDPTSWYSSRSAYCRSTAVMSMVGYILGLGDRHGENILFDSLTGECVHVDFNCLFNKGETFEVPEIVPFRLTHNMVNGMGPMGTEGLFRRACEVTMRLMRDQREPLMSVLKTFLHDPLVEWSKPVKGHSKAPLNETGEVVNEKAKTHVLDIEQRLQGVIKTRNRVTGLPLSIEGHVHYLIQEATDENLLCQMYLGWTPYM
T2 sequence (Q8WXE1 whole entry partner): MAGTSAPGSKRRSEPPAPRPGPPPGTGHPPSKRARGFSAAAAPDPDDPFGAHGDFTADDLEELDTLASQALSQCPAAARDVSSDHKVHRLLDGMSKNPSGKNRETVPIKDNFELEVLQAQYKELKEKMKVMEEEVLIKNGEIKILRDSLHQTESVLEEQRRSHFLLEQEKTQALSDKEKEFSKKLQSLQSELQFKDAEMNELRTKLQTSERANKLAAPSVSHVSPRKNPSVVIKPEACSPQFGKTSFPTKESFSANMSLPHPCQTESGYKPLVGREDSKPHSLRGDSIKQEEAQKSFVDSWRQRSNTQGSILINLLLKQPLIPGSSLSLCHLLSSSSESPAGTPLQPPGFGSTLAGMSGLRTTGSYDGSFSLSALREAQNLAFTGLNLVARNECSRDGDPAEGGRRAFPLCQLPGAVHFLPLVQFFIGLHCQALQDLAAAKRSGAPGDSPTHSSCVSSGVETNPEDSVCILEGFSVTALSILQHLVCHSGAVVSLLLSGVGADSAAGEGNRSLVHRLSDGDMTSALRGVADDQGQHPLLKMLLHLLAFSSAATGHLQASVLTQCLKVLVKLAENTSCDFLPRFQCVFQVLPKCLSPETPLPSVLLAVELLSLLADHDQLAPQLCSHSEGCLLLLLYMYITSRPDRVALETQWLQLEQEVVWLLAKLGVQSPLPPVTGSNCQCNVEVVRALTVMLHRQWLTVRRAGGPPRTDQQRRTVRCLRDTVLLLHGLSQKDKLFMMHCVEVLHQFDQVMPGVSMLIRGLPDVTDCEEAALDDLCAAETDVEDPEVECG
T1 sequence (P09874 whole entry, species assumed): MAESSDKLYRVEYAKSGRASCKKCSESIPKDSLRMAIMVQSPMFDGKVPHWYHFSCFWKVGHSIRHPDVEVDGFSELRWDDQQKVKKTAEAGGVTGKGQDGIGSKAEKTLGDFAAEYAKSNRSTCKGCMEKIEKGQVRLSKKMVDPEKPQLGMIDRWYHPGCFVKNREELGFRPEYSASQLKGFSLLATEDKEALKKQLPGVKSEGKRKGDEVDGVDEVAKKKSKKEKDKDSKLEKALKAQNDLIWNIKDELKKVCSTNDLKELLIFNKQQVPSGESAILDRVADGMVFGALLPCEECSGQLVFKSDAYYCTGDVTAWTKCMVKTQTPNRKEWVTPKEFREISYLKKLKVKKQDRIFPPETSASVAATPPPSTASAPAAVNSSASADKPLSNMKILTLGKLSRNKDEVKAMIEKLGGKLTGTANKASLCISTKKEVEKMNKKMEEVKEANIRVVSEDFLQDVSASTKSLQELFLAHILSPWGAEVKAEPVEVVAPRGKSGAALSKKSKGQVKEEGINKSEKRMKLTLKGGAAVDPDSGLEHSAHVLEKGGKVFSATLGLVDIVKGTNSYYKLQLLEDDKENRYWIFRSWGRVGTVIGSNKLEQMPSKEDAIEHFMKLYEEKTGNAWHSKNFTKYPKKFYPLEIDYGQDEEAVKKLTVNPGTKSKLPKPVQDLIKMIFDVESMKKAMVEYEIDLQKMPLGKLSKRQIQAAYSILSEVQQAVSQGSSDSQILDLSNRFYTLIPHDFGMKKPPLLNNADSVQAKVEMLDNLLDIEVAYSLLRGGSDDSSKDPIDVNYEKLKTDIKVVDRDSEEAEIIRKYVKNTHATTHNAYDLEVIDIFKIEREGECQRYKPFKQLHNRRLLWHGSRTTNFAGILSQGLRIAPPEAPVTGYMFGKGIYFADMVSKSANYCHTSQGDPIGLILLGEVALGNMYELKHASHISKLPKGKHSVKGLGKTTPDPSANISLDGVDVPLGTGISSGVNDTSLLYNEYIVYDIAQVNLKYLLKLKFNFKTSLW

## CCN(CC)CCOc1nncc2cc(C(=O)NC3C/C(=C\c4ccc(F)c(F)c4)C(=O)/C(=C/c4ccc(F)c(F)c4)C3)ccc12 (centres unmarked) [JCS133, N-(3,5-Bis((E)-3,4-difluorobenzylidene)-4-oxocyclohexyl)-1-(2-(diethylamino)ethoxy)phthalazine-6-carboxamide]
PARP1
  PARP1-trapping potency relative to JC099 (PARP1 in the chromatin-bound fraction): higher potency in PARP1-trapping
ATR
  ATR inhibition potency relative to JC099 (OLA- or UV-induced phosphorylation of Rad17 and CHK1): their potencies were close to JC099

## CCCCN(CCCC)C(=O)Nc1ccc(C(=O)NC2C/C(=C\c3ccc(F)c(F)c3)C(=O)/C(=C/c3ccc(F)c(F)c3)C2)cc1 (centres unmarked) [JCS060, N-(3,5-bis((E)-3,4-difluorobenzylidene)-4-oxocyclohexyl)-4-(3,3-dibutylureido)benzamide]
PARP1; 0.3 μM
  PARP1 trapped on DNA lesions: trapped
PARP1
  PARP1-trapping potency relative to JC099 (PARP1 in the chromatin-bound fraction): higher potency in PARP1-trapping
ATR; PC3 cells
  Olaparib induced phosphorylation of Rad17 at Ser 645 and CHK1 at Ser 345: inhibited

## CCN(CC)CCOc1ccc(C(=O)NC2C/C(=C\c3ccc(F)c(F)c3)C(=O)/C(=C/c3ccc(F)c(F)c3)C2)c(C)c1 (centres unmarked) [JCS112, N-(3,5-Bis((E)-3,4-difluorobenzylidene)-4-oxocyclohexyl)-4-(2-(diethylamino)ethoxy)-2-methyl-benzamide]
ATR
  ATR inhibition potency relative to JC099 (OLA- or UV-induced phosphorylation of Rad17 and CHK1): less ATR inhibition potencies

## O=C1/C(=C/c2cc(Cl)cc(Cl)c2)CC(NC(=O)c2ccc(OCCN3CCCCC3)cc2)C/C1=C\c1cc(Cl)cc(Cl)c1 (centres unmarked) [JCS061, N-(3,5-Bis((E)-3,5-dichlorobenzylidene)-4-oxocyclohexyl)-4-(2-(piperidin-1-yl)ethoxy)benzamide]
PARP1; 0.3 μM
  PARP1 trapped on DNA lesions: trapped
ATR; PC3 cells
  Olaparib induced phosphorylation of Rad17 at Ser 645 and CHK1 at Ser 345: inhibited

## CCN(CC)CCOc1ccc(C(=O)NC2C/C(=C\c3ccc(F)c(F)c3)C(=O)/C(=C/c3ccc(F)c(F)c3)C2)cc1C(C)=O (centres unmarked) [JCS104, 3-Acetyl-N-(3,5-bis((E)-3,4-difluorobenzylidene)-4-oxocyclohexyl)-4-(2-(diethylamino)ethoxy)-benzamide]
ATR
  ATR inhibition potency relative to JC099 (OLA- or UV-induced phosphorylation of Rad17 and CHK1): less ATR inhibition potencies

## O=C(CCN1CCCC1)NC1C/C(=C\c2ccc(F)c(F)c2)C(=O)/C(=C/c2ccc(F)c(F)c2)C1 (centres unmarked) [JCS007, N-(3,5-bis((E)-3,4-difluorobenzylidene)-4-oxocyclohexyl)-3-(pyrrolidin-1-yl)propanamide]
ATR; PC3 and MDA-MB-231 cells
  Olaparib induced phosphorylation of Rad17 at Ser 645 and CHK1 at Ser 345: inhibited

## CCN1CCC[C@@H]1CNc1ccc(C(=O)NC2C/C(=C\c3ccc(F)c(F)c3)C(=O)/C(=C/c3ccc(F)c(F)c3)C2)cc1 (stereo partly drawn) [JCS066, N-(3,5-Bis((E)-3,4-difluorobenzylidene)-4-oxocyclohexyl)-4-((((R)-1-ethylpyrrolidin-2-yl)methyl)-amino)benzamide]
ATR
  ATR inhibition potency relative to JC099 (OLA- or UV-induced phosphorylation of Rad17 and CHK1): greater ATR inhibition potential

## CCN1CCC[C@H]1CNc1ccc(C(=O)NC2C/C(=C\c3ccc(F)c(F)c3F)C(=O)/C(=C/c3ccc(F)c(F)c3F)C2)cc1 (stereo partly drawn) [JCS157, 4-((((S)-1-Ethylpyrrolidin-2-yl)methyl)amino)-N-(4-oxo-3,5-bis((E)-2,3,4-trifluorobenzylidene)-cyclohexyl)benzamide]
ATR
  ATR inhibition potency relative to JC099 (OLA- or UV-induced phosphorylation of Rad17 and CHK1): less ATR inhibition potencies

## CCN(CC)CCOc1ccc2cc(C(=O)NC3C/C(=C\c4ccc(F)c(F)c4)C(=O)/C(=C/c4ccc(F)c(F)c4)C3)ccc2c1 (centres unmarked) [JCS098, N-(3,5-Bis((E)-3,4-difluorobenzylidene)-4-oxocyclohexyl)-6-(2-(diethylamino)ethoxy)-2-naphtha-mide]
ATR
  ATR inhibition potency relative to JC099 (OLA- or UV-induced phosphorylation of Rad17 and CHK1): less ATR inhibition potencies

## O=C1/C(=C/c2ccc(F)c(F)c2)CC(NC(=O)c2cnc(NCCN3CCCC3)c([N+](=O)[O-])c2)C/C1=C\c1ccc(F)c(F)c1 (centres unmarked) [JCS092, N-(3,5-Bis((E)-3,4-difluorobenzylidene)-4-oxocyclohexyl)-5-nitro-6-((2-(pyrrolidin-1-yl)ethyl)ami-no)nicotinamide]
ATR
  ATR inhibition potency relative to JC099 (OLA- or UV-induced phosphorylation of Rad17 and CHK1): their potencies were close to JC099

## O=C1/C(=C/c2ccc(F)c(F)c2)CC(NC(=O)c2ccc3cc(OCCN4CCCCC4)ccc3c2)C/C1=C\c1ccc(F)c(F)c1 (centres unmarked) [JCS097, N-(3,5-Bis((E)-3,4-difluorobenzylidene)-4-oxocyclohexyl)-6-(2-(piperidin-1-yl)ethoxy)-2-naphth-amide]
ATR
  ATR inhibition potency relative to JC099 (OLA- or UV-induced phosphorylation of Rad17 and CHK1): less ATR inhibition potencies

## N#Cc1cc(NCCN2CCCC2)ccc1C(=O)NC1C/C(=C\c2ccc(F)c(F)c2)C(=O)/C(=C/c2ccc(F)c(F)c2)C1 (centres unmarked) [JCS0091]
ATR
  ATR inhibition potency relative to JC099 (OLA- or UV-induced phosphorylation of Rad17 and CHK1): their potencies were close to JC099

## O=C1/C(=C/c2ccc(F)c(F)c2)CC(NC(=O)c2ccc(NC(=O)N3CCCCC3)cc2)C/C1=C\c1ccc(F)c(F)c1 (centres unmarked) [JCS053, N-(4-((3,5-bis((E)-3,4-difluorobenzylidene)-4-oxocyclohexyl)carbamoyl)phenyl)piperidine-1-carboxamide]
PARP1; 0.3 μM
  PARP1 trapped on DNA lesions: trapped
PARP1
  PARP1-trapping potency relative to JC099 (PARP1 in the chromatin-bound fraction): higher potency in PARP1-trapping

## CCN(CC)CCOc1ccc(-c2ccc(C(=O)NC3C/C(=C\c4ccc(F)c(F)c4)C(=O)/C(=C/c4ccc(F)c(F)c4)C3)cc2)cc1 (centres unmarked) [JCS095, N-(3,5-Bis((E)-3,4-difluorobenzylidene)-4-oxocyclohexyl)-4′-(2-(diethylamino)ethoxy)-[1,1′-biphenyl]-4-carboxamide]
ATR
  ATR inhibition potency relative to JC099 (OLA- or UV-induced phosphorylation of Rad17 and CHK1): less ATR inhibition potencies

## O=C1/C(=C/c2ccc(F)c(F)c2)CC(NC(=O)c2ccc(OCCN3CCN4CCCC4C3)cc2)C/C1=C\c1ccc(F)c(F)c1 (centres unmarked) [JCS135, N-(3,5-Bis((E)-3,4-difluorobenzylidene)-4-oxocyclohexyl)-4-(2-(hexahydropyrrolo[1,2-a]pyrazin-2(1H)-yl)ethoxy)benzamide]
PARP1
  PARP1-trapping potency relative to JC099 (PARP1 in the chromatin-bound fraction): higher potency in PARP1-trapping

## CCN(CC)CCOc1ccc(C(=O)NC2CC(Cc3ccc(F)c(F)c3)C(=O)C(Cc3ccc(F)c(F)c3)C2)cc1 (centres unmarked) [JCS074, N-(3,5-bis(3,4-difluorobenzyl)-4-oxocyclohexyl)-4-(2-(diethylamino)ethoxy)benzamide]
PARP1
  PARP1-trapping potency relative to JC099 (PARP1 in the chromatin-bound fraction): increased the accumulation of PARP1 in the chromatin-bound fraction than JC099

## O=C1/C(=C/c2ccc(F)c(F)c2)CC(NC(=O)c2ccc(OCCN3CCCCC3)c(OCc3ccccc3)c2)C/C1=C\c1ccc(F)c(F)c1 (centres unmarked) [JCS102, 3-(Benzyloxy)-N-(3,5-bis((E)-3,4-difluorobenzylidene)-4-oxocyclohexyl)-4-(2-(piperidin-1-yl)eth-oxy)benzamide]
PARP1
  PARP1-trapping potency relative to JC099 (PARP1 in the chromatin-bound fraction): higher potency in PARP1-trapping

## O=C1/C(=C/c2ccc(F)c(F)c2)CC(NC(=O)c2cnc(NCCN3CCCC3)cn2)C/C1=C\c1ccc(F)c(F)c1 (centres unmarked) [JCS093, N-(3,5-Bis((E)-3,4-difluorobenzylidene)-4-oxocyclohexyl)-5-((2-(pyrrolidin-1-yl)ethyl)amino)pyr-azine-2-carboxamide]
ATR
  ATR inhibition potency relative to JC099 (OLA- or UV-induced phosphorylation of Rad17 and CHK1): less ATR inhibition potencies

## NCCOc1ccc(C(=O)NC2C/C(=C\c3ccc(F)c(F)c3)C(=O)/C(=C/c3ccc(F)c(F)c3)C2)cc1 (centres unmarked) [JCS036]
PARP1; 0.5 μM
  PARP1 trapped on DNA lesions: trapped

## O=C1/C(=C/c2ccc(F)c(F)c2)CC(NC(=O)c2ccc(NCCN3CCCCC3)cc2)C/C1=C\c1ccc(F)c(F)c1 (centres unmarked) [JCS028, N-(3,5-Bis((E)-3,4-difluorobenzylidene)-4-oxocyclohexyl)-4-((2-(piperidin-1-yl)ethyl)amino)-benzamide]
PARP1; 0.5 μM and 2 μM
  PARP1 trapped on DNA lesions: trapped
PARP1; 0.5 μM
  PARP1 trapped on DNA lesions: trapped

## COCCN(CCOC)CCOc1ccc(C(=O)NC2C/C(=C\c3cc(F)c(F)c(OC)c3)C(=O)/C(=C/c3cc(F)c(F)c(OC)c3)C2)cc1 (centres unmarked) [JCS153, N-(3,5-Bis((E)-3,4-difluoro-5-methoxybenzylidene)-4-oxocyclohexyl)-4-(2-(bis(2-methoxyethyl)ami-no)ethoxy)benzamide]
ATR
  ATR inhibition potency relative to JC099 (OLA- or UV-induced phosphorylation of Rad17 and CHK1): greater ATR inhibition potential

## CCN(CC)CCOc1ccc(C(=O)NC2C/C(=C\c3ccc(F)c(F)c3)C(=O)/C(=C/c3ccc(F)c(F)c3)C2)cn1 (centres unmarked) [JCS115, N-(3,5-Bis((E)-3,4-difluorobenzylidene)-4-oxocyclohexyl)-6-(2-(diethylamino)ethoxy)nicotinamide]
ATR
  ATR inhibition potency relative to JC099 (OLA- or UV-induced phosphorylation of Rad17 and CHK1): less ATR inhibition potencies

## O=C1/C(=C/c2ccc(F)c(F)c2)CC(NC(=O)c2ccc(OCCN3CCCCC3)nc2)C/C1=C\c1ccc(F)c(F)c1 (centres unmarked) [JCS116, N-(3,5-Bis((E)-3,4-difluorobenzylidene)-4-oxocyclohexyl)-6-(2-(piperidin-1-yl)ethoxy)nicotinamide]
ATR
  ATR inhibition potency relative to JC099 (OLA- or UV-induced phosphorylation of Rad17 and CHK1): less ATR inhibition potencies
